Experimental data reported in PubChem BioAssay (NCI).
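Dose response: 5 concentrations. Exposure: 48 h. Format: 96-well plates. Endpoint: linear interpolation; highest concentration if not reached. TGI: total growth inhibition.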

Columns and labels:
Assay in all cases: growth of human tumour cells (NCI), 48 h
SF-295 CNS = system: SF-295 CNS
MDA-MB-435 = system: MDA-MB-435
UACC-62 melanoma = system: UACC-62 melanoma
NCI-H226 lung = system: NCI-H226 lung
HCT-15 colon = system: HCT-15 colon
RXF 393 renal = system: RXF 393 renal
SNB-19 CNS = system: SNB-19 CNS
SNB-78 CNS = system: SNB-78 CNS
A549 NSCLC = system: A549 NSCLC
SN12C renal = system: SN12C renal
HCC-2998 colon = system: HCC-2998 colon
M14 melanoma = system: M14 melanoma
MALME-3M melanoma = system: MALME-3M melanoma
DMS 114 small cell lung = system: DMS 114 small cell lung
PC-3 prostate = system: PC-3 prostate
DU-145 prostate = system: DU-145 prostate
LXFL 529 NSCLC = system: LXFL 529 NSCLC
SNB-75 CNS = system: SNB-75 CNS
SF-268 CNS = system: SF-268 CNS
HOP-18 NSCLC = system: HOP-18 NSCLC
CCRF-CEM leukemia = system: CCRF-CEM leukemia
SK-MEL-5 melanoma = system: SK-MEL-5 melanoma
OVCAR-3 ovarian = system: OVCAR-3 ovarian
SR leukemia = system: SR leukemia
SF-539 CNS = system: SF-539 CNS
U251 CNS = system: U251 CNS
BT-549 breast = system: BT-549 breast
ACHN renal = system: ACHN renal
NCI-H460 lung = system: NCI-H460 lung
RPMI-8226 leukemia = system: RPMI-8226 leukemia
A498 renal = system: A498 renal
NCI-H23 lung = system: NCI-H23 lung
HCT-116 colon = system: HCT-116 colon
XF 498 CNS = system: XF 498 CNS
T-47D breast = system: T-47D breast
786-0 renal = system: 786-0 renal
OVCAR-8 ovarian = system: OVCAR-8 ovarian
TK-10 renal = system: TK-10 renal
HOP-62 NSCLC = system: HOP-62 NSCLC
OVCAR-4 ovarian = system: OVCAR-4 ovarian
NCI-H522 lung = system: NCI-H522 lung
EKVX NSCLC = system: EKVX NSCLC
OVCAR-5 ovarian = system: OVCAR-5 ovarian
UO-31 renal = system: UO-31 renal
HS 578T breast = system: HS 578T breast
SW-620 colon = system: SW-620 colon
MDA-N = system: MDA-N
HT29 colon = system: HT29 colon
UACC-257 melanoma = system: UACC-257 melanoma
SK-MEL-2 melanoma = system: SK-MEL-2 melanoma
HOP-92 NSCLC = system: HOP-92 NSCLC
K-562 leukemia = system: K-562 leukemia
CAKI-1 renal = system: CAKI-1 renal
IGROV1 ovarian = system: IGROV1 ovarian
SK-OV-3 ovarian = system: SK-OV-3 ovarian
MDA-MB-231 breast = system: MDA-MB-231 breast
SK-MEL-28 melanoma = system: SK-MEL-28 melanoma
COLO 205 colon = system: COLO 205 colon
MOLT-4 leukemia = system: MOLT-4 leukemia
DMS 273 small cell lung = system: DMS 273 small cell lung
M19-MEL melanoma = system: M19-MEL melanoma
HL-60(TB) leukemia = system: HL-60(TB) leukemia
DLD-1 colon = system: DLD-1 colon
RXF-631 renal = system: RXF-631 renal

SMILES: CC(=O)[C@]1(O)Cc2c(O)c3c(c(O)c2[C@@H](OC2CC(N)C(O)C(C)O2)C1)C(=O)c1c(OCc2ccccc2)cccc1C3=O (stereo partly drawn)
- TGI (SF-295 CNS): 4.05 µM
- TGI (MDA-MB-435): 2.95 µM
- TGI (UACC-62 melanoma): 5.63 µM
- TGI (NCI-H226 lung): 5.74 µM
- TGI (HCT-15 colon): 2.75 µM
- TGI (RXF 393 renal): 15.1 µM
- TGI (SNB-19 CNS): 9.04 µM
- TGI (SNB-78 CNS): 36.1 µM
- TGI (A549 NSCLC): 6.93 µM
- TGI (SN12C renal): 4.65 µM
- TGI (HCC-2998 colon): 2.63 µM
- TGI (M14 melanoma): 2.89 µM
- TGI (MALME-3M melanoma): 20.1 µM
- TGI (DMS 114 small cell lung): 2.55 µM
- TGI (PC-3 prostate): 2.64 µM
- TGI (DU-145 prostate): 3.4 µM
- TGI (LXFL 529 NSCLC): 2.38 µM
- TGI (SNB-75 CNS): 13.8 µM
- TGI (SF-268 CNS): 11.7 µM
- TGI (HOP-18 NSCLC): 3.33 µM
- TGI (CCRF-CEM leukemia): 1.45 µM
- TGI (SK-MEL-5 melanoma): 5.84 µM
- TGI (OVCAR-3 ovarian): 6.87 µM
- TGI (SR leukemia): 0.468 µM
- TGI (SF-539 CNS): 7.45 µM
- TGI (U251 CNS): 3.97 µM
- TGI (BT-549 breast): 21.2 µM
- TGI (ACHN renal): 4.91 µM
- TGI (NCI-H460 lung): 6.31 µM
- TGI (RPMI-8226 leukemia): > 100 µM
- TGI (A498 renal): 21.8 µM
- TGI (NCI-H23 lung): 6.9 µM
- TGI (HCT-116 colon): 1.79 µM
- TGI (XF 498 CNS): 14.5 µM
- TGI (T-47D breast): 8.11 µM
- TGI (786-0 renal): 2.16 µM
- TGI (OVCAR-8 ovarian): 7.8 µM
- TGI (TK-10 renal): 25 µM
- TGI (HOP-62 NSCLC): 16 µM
- TGI (OVCAR-4 ovarian): 9.36 µM
- TGI (NCI-H522 lung): 5.19 µM
- TGI (EKVX NSCLC): 11.1 µM
- TGI (OVCAR-5 ovarian): 5.12 µM
- TGI (UO-31 renal): 8.79 µM
- TGI (HS 578T breast): 2.29 µM
- TGI (SW-620 colon): 2 µM
- TGI (MDA-N): 2.98 µM
- TGI (HT29 colon): 14.7 µM
- TGI (UACC-257 melanoma): 11.1 µM
- TGI (SK-MEL-2 melanoma): 58.4 µM
- TGI (HOP-92 NSCLC): 22.6 µM
- TGI (K-562 leukemia): 2.68 µM
- TGI (CAKI-1 renal): 12 µM
- TGI (IGROV1 ovarian): 33.8 µM
- TGI (SK-OV-3 ovarian): 21.2 µM
- TGI (MDA-MB-231 breast): 3.45 µM
- TGI (SK-MEL-28 melanoma): 2.91 µM

SMILES: COc1cc([C@@H]2Oc3cc4oc(-c5ccccc5)cc(=O)c4c(O)c3O[C@H]2OC)ccc1O
- TGI (COLO 205 colon): 50.2 µM
- TGI (MOLT-4 leukemia): 21.3 µM
- TGI (DMS 273 small cell lung): 14.4 µM
- TGI (UACC-62 melanoma): 37.7 µM
- TGI (NCI-H226 lung): 38.4 µM
- TGI (SNB-78 CNS): 38.2 µM
- TGI (M19-MEL melanoma): 24 µM
- TGI (SN12C renal): 25.5 µM
- TGI (HL-60(TB) leukemia): 8.08 µM
- TGI (HCC-2998 colon): 26.5 µM
- TGI (M14 melanoma): 24.7 µM
- TGI (MALME-3M melanoma): 30.6 µM
- TGI (LXFL 529 NSCLC): 25.2 µM
- TGI (SNB-75 CNS): 25.1 µM
- TGI (SF-268 CNS): 19.7 µM
- TGI (CCRF-CEM leukemia): 27.8 µM
- TGI (SR leukemia): 18.5 µM
- TGI (SF-539 CNS): 30.6 µM
- TGI (ACHN renal): 23.1 µM
- TGI (NCI-H460 lung): 15.2 µM
- TGI (RPMI-8226 leukemia): 25.9 µM
- TGI (A498 renal): 32.3 µM
- TGI (NCI-H23 lung): 32.4 µM
- TGI (HCT-116 colon): 19.6 µM
- TGI (786-0 renal): 20.8 µM
- TGI (DLD-1 colon): 21.2 µM
- TGI (HOP-62 NSCLC): 26.9 µM
- TGI (OVCAR-4 ovarian): 29.1 µM
- TGI (SK-MEL-2 melanoma): 31.2 µM
- TGI (HOP-92 NSCLC): 39.5 µM
- TGI (K-562 leukemia): 25.9 µM
- TGI (CAKI-1 renal): 34.4 µM
- TGI (IGROV1 ovarian): 53.1 µM
- TGI (SK-OV-3 ovarian): 34.1 µM
- TGI (RXF-631 renal): 32.6 µM
- TGI (SK-MEL-28 melanoma): 16.8 µM
